Structures can show the parent of a compound that is named as a salt.
Experiments:
[1] = tested on: phenylalanine plasma concentrations; conditions: cited from earlier work
blood Phe [2] = test: Reduction of blood Phe in patients with PKU, randomized crossover of PTC923 vs sapropterin dihydrochloride; assay type: in vivo, human; conditions: for Mean (SD) blood Phe, At baseline: 20 mg/kg period, Day 1 pre-dose; for Least squares mean (SE) change from baseline in blood Phe / Mean (SD) blood Phe, Change / Mean (SD) blood Phe, On treatment: 20 mg/kg/day oral, 7 days; for Mean (SD) blood Phe, On treatment: mean of days 3, 5 and 7
Description: Following screening for eligibility, a 7-day run-in period commenced. Patients then received 7 days of once-daily oral treatment with either PTC923 20 mg/kg/day (“low dose”), or PTC923 60 mg/kg/day or sapropterin dihydrochloride, in a random order. PTC923 (formerly CNSA-001) is oral sepiapterin. Each patient was randomized to one of six treatment sequences (FIG. 2). The randomization in six different treatment sequences was intended to minimize carry over effect, treatment period effect, patient fatigue, and natural fluctuations in blood Phe levels. A 7-day washout period separated each active treatment period. Patients were asked to maintain their usual pre-study diet, including consumption of amino acid mixtures if prescribed, and were monitored throughout the study by a metabolic dietician.
Blood samples for measurement of Phe were taken on 7, 5, 3, and 1 days before randomization. During treatment periods, blood was taken pre-dose for day 1 and post-dose for days 3, 5 and 7. During the washout periods, blood was taken for measurement of Phe on days 1, 3, 5, and 7. All samples were taken under fasting conditions or no earlier than 3 hours following a meal and at the same time of day. Blood Phe was measured using a validated LC-MS-MS technique of dried blood sampling via Volumetric Absorptive Microsampling (VAMS®) using Mitra® 4-sampler clamshells, at a central bioanalytical laboratory (Agilex Biolabs Pty Ltd).
The main objective of the study was to assess the efficacy of PTC923 measured as the mean blood Phe change from baseline. The efficacy population consisted of all patients who were randomized and had blood Phe measurements before treatment and at days 3, 5 and 7 of treatment from at least one treatment period. The safety population consisted of all patients who were randomized and who received any dose of study treatment. The sample size calculation was based on an all-comers, placebo-controlled regulatory study of sapropterin with an observed mean decrease in blood Phe of 99 μmol/L and standard deviation of 220 μmol/L, and assumed a true mean decrease in blood Phe of 300 μmol/L with 80% power utilizing a 2-sided α of 0.05.
Response to PTC923 was evaluated by measuring the mean change from baseline in blood Phe (calculated as the mean of measurements at days 3, 5 and 7 of each treatment period). Day 1 pre-dose blood Phe concentrations for each treatment period served as the individual patient specific baseline for that period.
The change from baseline in blood Phe of each treatment period was modelled using a linear mixed model for repeated measures (MMRM). The efficacy model included fixed effects for baseline for each treatment period, treatment group, sequence, period, and a random subject effect within each sequence, with a first order autoregressive AR (1) covariance structure. No unplanned covariates were included.
Pairwise comparisons in changes from baseline in Phe were performed between each PTC923 treatment and sapropterin treatment by calculating the least squares means with Dunnet's method of adjustment for multiple comparisons. The estimated change in blood Phe levels, their standard errors (SE) and associated p-values were calculated for each pairwise comparison. Dunnet's method of adjustment was used to account for the multiple comparisons of the test groups against the control group. This adjustment ensured that the overall Type I error rate under the null hypothesis was maintained despite multiple test groups being compared to the single control group.
The overall mean changes in blood Phe for each treatment were calculated and the standard deviations (SD) were determined.
A prespecified sensitivity analysis excluded treatment periods where baseline Phe was <300 μmol/L and a responder analysis looked at patients with baselines ≥300 μmol/L who responded to sapropterin and/or to PTC923 treatment by ≥20% reduction.

[3] = Adverse events in patients with PKU on PTC923 or sapropterin dihydrochloride; assay type: in vivo, human; conditions: 20 mg/kg
From the text: PTC923 safety was monitored and adverse events (AEs) were coded using the Medical Dictionary for Regulatory Activities (MedDRA®) version 21.0. Treatment-emergent adverse events (TEAEs) were defined as AE that began on or after first dose of study drug. A TEAE was associated with the study treatment currently being received, or the last study treatment before its onset. A treatment-related TEAE was, in the judgment of the investigator possibly, probably or definitely related to treatment. A serious AE (SAE) was defined as resulting in death, life-threatening AE, inpatient hospitalization or prolongation of existing hospitalization, a persistent or significant disability/incapacity or a substantial disruption of the ability to conduct normal life functions, or a congenital anomaly/birth defect.

blood Phe [4] = conditions: standard deviation of 220 μmol/L; cited from earlier work
[5] = Subjects with classical PKU (N = 11)

SMILES: C[C@H](O)[C@H](O)[C@H]1CNc2nc(N)[nH]c(=O)c2N1 [sapropterin dihydrochloride, reference compound]
- Classical PKU subjects that respond to treatment (historically) [1]: about 10%
- Proportion of patients achieving blood Phe <360 μmol/L (blood Phe [2]; 20 mg/kg, n of 24): 42%
- Mean (SD) blood Phe, At baseline (blood Phe [2]; All subjects (N = 24)): 710.4 (370.0) μmol/L
- Least squares mean (SE) change from baseline in blood Phe (blood Phe [2]; All subjects (N = 24)): −91.5 (41.7) μmol/L
- Mean (SD) blood Phe, Change (blood Phe [2]; All subjects (N = 24)): −90.8 (226.9) μmol/L
- Mean (SD) blood Phe, On treatment (blood Phe [2]; All subjects (N = 24)): 619.5 (475.3) μmol/L
- Least squares mean change from baseline in blood Phe to first Phe measurement (Day 3) (blood Phe [2]; Day 3, 20 mg/kg): -72.3 µmol/L
- Mean (SD) blood Phe, At baseline (blood Phe [2]; [5]): 903.5 (422.5) μmol/L
- Mean (SD) blood Phe, Change (blood Phe [2]; [5]): 10.7 (221.6) μmol/L
- Least squares mean (SE) change from baseline in blood Phe (blood Phe [2]; Subjects with classical PKU (N = 11), dihydrochloride, 20 mg/kg/day): -2.8 µmol/L
- Least squares mean (SE) change from baseline in blood Phe (blood Phe [2]; Subjects with classical PKU (N = 11), listed as Sapropterin dihydrochloride, dihydrochloride, 20 mg/kg/day): −2.8 (62.0) μmol/L
- Mean (SD) blood Phe, On treatment (blood Phe [2]; [5]): 914.2 (538.7) μmol/L
- Least squares mean change from baseline in blood Phe (blood Phe [2]; group of 12 responders (Phe reduction ≥20%, baseline ≥300 μmol/L), 20 mg/kg): -139.70 µmol/L
- Non-classical subjects normalized (blood phenylalanine less than 120 micromole per liter) (blood Phe [2]; non-classical subjects): 15.4%
- Patients reporting any adverse event [3]: 21%
- Patients reporting severe AE [3]: 0%
- Patients reporting treatment-related AE [3]: 0%
- Headache (all-cause AE) ([3]; transient): 4%
- Observed mean decrease in blood Phe (blood Phe [4]): 99 µmol/L

Source: patent publication US20220362249A1, “METHODS FOR TREATING […]” (PTC Therapeutics MP, Inc., priority 2019, published 2022)
